Consider 16 molecules from patent publication US20230014445A1, “ALLOSTERIC CHROMENONE INHIBITORS OF PHOSPHOINOSITIDE 3-KINASE (PI3K) FOR THE TREATMENT OF DISEASE” (Petra Pharma Corporation, priority 2021, published 2023).

Like-named read-outs stand apart in the source and are kept apart here. A value given as a limit tells only on which side of the number the result lay.

The target of experiment [1] is T1, human full length PIK3KA H1047R mutant (p110α/p85α complex) (Homo sapiens, UniProt P42336, H1047R).
T1 construct: Recombinant, catalytically active human full length PIK3KA Wild-type and H1047R mutant were purchased; 6xHis (N); purchased EMD Millipore Sigma 14-792M
T1 sequence (P42336 whole entry H1047R): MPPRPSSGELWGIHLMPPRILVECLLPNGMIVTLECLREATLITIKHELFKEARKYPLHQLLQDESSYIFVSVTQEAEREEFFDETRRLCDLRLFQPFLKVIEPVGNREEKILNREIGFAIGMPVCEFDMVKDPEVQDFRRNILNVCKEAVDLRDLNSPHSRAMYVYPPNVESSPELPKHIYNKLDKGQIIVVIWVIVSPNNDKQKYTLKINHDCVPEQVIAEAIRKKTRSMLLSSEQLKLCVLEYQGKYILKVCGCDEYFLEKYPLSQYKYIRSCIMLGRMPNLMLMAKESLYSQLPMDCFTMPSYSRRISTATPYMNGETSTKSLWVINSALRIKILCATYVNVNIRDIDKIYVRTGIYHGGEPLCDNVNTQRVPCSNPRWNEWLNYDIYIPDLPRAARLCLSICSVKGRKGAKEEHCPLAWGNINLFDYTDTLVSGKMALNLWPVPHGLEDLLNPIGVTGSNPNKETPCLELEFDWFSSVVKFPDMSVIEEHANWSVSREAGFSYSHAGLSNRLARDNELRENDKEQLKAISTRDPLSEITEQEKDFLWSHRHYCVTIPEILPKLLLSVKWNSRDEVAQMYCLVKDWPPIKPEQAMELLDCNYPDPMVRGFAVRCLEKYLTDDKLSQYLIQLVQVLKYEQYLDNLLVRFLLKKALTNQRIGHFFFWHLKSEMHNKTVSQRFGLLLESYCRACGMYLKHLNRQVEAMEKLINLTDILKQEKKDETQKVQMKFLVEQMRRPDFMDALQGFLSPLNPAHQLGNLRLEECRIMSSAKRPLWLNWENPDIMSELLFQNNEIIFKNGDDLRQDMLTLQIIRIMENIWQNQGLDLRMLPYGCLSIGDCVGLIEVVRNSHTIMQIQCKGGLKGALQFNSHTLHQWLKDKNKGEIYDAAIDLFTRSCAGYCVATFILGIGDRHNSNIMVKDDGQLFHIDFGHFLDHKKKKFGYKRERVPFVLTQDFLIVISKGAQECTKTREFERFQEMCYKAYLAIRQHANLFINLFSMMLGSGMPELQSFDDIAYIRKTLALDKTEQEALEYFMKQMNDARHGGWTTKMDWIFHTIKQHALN
T1 sequence (P27986 whole entry partner): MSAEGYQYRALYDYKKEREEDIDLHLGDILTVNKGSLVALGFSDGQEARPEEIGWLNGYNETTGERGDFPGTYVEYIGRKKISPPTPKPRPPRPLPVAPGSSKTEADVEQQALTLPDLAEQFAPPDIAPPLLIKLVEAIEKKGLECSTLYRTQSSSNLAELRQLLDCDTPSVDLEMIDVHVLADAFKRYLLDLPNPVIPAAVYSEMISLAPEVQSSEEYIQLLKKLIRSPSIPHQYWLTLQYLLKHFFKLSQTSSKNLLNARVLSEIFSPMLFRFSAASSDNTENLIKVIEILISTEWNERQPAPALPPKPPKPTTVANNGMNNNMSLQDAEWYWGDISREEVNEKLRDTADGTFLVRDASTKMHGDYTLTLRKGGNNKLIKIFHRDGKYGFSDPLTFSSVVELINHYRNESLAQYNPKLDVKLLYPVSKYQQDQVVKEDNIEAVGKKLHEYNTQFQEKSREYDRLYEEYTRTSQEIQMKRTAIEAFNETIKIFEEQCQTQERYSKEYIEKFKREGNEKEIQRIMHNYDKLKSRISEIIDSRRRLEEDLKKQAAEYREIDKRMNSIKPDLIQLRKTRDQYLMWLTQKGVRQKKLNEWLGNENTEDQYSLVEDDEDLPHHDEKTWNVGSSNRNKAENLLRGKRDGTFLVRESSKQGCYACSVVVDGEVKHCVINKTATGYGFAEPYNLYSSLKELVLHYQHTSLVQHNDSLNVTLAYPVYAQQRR
The experiment in a line: PI3K-Alpha Kinase (PIK3CA) biochemical activity, H1047R mutant (ADP-Glo). The conditions noted are these: 20 uM ATP. The procedure, abridged:
(§1)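 ADP formation, measured by ADP-Glo luminescence after reaction to about 10% ATP conversion at 27° C., gives 10-point 4-parameter IC50 curves normalized to no-enzyme and DMSO controls. Lipid substrate was PIP2diC8 or Soy PI at 50 uM, with 20 uM ATP. WT or H1047R p110α/p85α complex (1-5 nM) was preincubated 1 h with compound.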

The target of experiment [2] is PI3K-α (PIK3CA) in MDA-MB-453 cells (Homo sapiens, UniProt P42336). The experiment in a line: PI3K-Alpha Kinase (PIK3CA) activity in vitro cell based assay (AlphaLisa SureFire). The protocol:
PI3K-Alpha Kinase (PIK3CA) Activity In Vitro Cell Based Assay and Determining IC50 Values for Inhibitors
The MDA-MB-453 (ATCC-HTB-131) cell line was obtained from the American Type Culture Collection (Manassas, Va.). Cells were maintained in Dulbecco's Modified Eagle Media (DMVEM, Gibco 11965-092) supplemented with 10% Fetal Bovine Serum, heat inactivated (FBS HI, Gibco 10082-147), 1× non-essential amino acids (NEAA, Gibco 11140-050), and 1 mM sodium pyruvate (Gibco 11360-070). Cultures were maintained in a humidified incubator at 37° C. under […].
For compound testing in 0% FBS, MDA-MB-453 cells were seeded at a density of 1.5×10^4 cells per well in white 384-well plates in 20 μl of Minimum Essential Media (MEM) assay media with 1×NEAA, 1 mM sodium pyruvate, and 1 μg/mL human insulin (Sigma I9278). Compounds dissolved in 10 mM stock solutions in DMSO were serially diluted 1:3 in DMSO to generate a 10-point dilution series and plated using an acoustic liquid handler system (Echo 550 Series Liquid Handler, Labcyte). A 5× intermediate compound dilution plate in MEM with 1×NEAA and 1 mM sodium pyruvate (150 μM starting compound concentration in 1.5% DMSO) was then prepared. Five μl of the intermediate serially diluted compounds were added to the cell plate to final concentrations ranging from […] in 0.3% DMSO. 0.3% DMSO alone was used to establish the maximum (MAX) signal and GDC-0032 at a final concentration of 1 μM was used as a reference compound for the minimum (MIN) signal. After 3 hours treatment, the medium was removed, and the cells lysed in 10 μL of 1× SureFire Lysis buffer with shaking for 10 minutes at room temperature. The Acceptor Mix (Reaction Buffer 1+Reaction Buffer 2+Activation Buffer+SureFire Ultra Acceptor Beads) was prepared by diluting Activation buffer 25-fold in combined Reaction Buffer 1 and Reaction Buffer 2. The Acceptor beads were diluted 50-fold in the combined Reaction Buffers. Five μL of Acceptor Mix was added to each well, the plate was sealed and covered with foil and incubated for 1 hour at room temperature. The Donor Mix (dilution buffer+SureFire Ultra Donor Beads) was prepared by diluting Donor Beads 50-fold in dilution buffer. Five μL of the Donor Mix was added to each well and the plate sealed and covered with foil and incubated for 1 hour at room temperature in the dark. The plates were read on a Neo2 plate reader instrument from Biotek using standard AlphaLisa settings.
Compounds were tested in duplicate and the average % inhibition at each compound concentration was used to generate a single dose response curve. The data were processed using the Genedata-Screener tool. Relative IC50 values were determined using luminescence units by calculating percent inhibition with respect to the in-plate “MIN” (GDC-0032 reference control) and “MAX” (DMSO) controls. The data was analyzed using a 4-parameter nonlinear logistic equation (four-parameter logistic concentration-response curve):
Y=bottom+[(top−bottom)/1+(X/IC50)slope]
where Y=% inhibition, X=concentration of inhibitor, bottom=minimum value of y attained by curve-fit, top=maximum value of y attained by curve-fit and slope=steepness of curve at the IC50.
% Inhibition=[(signal at X−median Min)/(median Max−median Min)]×100
IC50: concentration of compound that reduces a given response (ligand binding, enzyme response) by 50%. Relative IC50: concentration giving half the compound's maximum response.
For IC50 values shown in Table B, “A” means IC50<50 nM; “B” means IC50 ranging between 50 nM and 100 nM; “C” means IC50 ranging between 100 nM and 500 nM; “D” means IC50>500 nM.

In experiment [3] the target is T2, human full length PIK3KA Wild-type (p110α/p85α complex) (Homo sapiens, UniProt P42336).
T2 construct: Recombinant, catalytically active human full length PIK3KA Wild-type and H1047R mutant were purchased; 6xHis (N); purchased EMD Millipore Sigma 14-602M
The experiment in a line: PI3K-Alpha Kinase (PIK3CA) biochemical activity, wild-type (ADP-Glo). The conditions noted are these: 20 uM ATP. The method in brief:
as §1
(In general: ADP-Glo turns the ADP formed in a reaction into a luminescent signal.)

Setting [4] is: 0% FBS, 3 hours treatment, read-out: PI3K-α (PIK3CA) in vitro cell based assay IC50.
[5] abbreviates: read-out: PI3K-α (PIK3CA) in vitro cell based assay IC50, 0% FBS, 3 hours treatment.

PI3K-α (PIK3CA) in MDA-MB-453 cells, sequence (P42336 whole entry): as the sequence (P42336 whole entry H1047R) above, with R1047H counted along it
PI3K-α (PIK3CA) in MDA-MB-453 cells, sequence (P27986 2-724, further chain): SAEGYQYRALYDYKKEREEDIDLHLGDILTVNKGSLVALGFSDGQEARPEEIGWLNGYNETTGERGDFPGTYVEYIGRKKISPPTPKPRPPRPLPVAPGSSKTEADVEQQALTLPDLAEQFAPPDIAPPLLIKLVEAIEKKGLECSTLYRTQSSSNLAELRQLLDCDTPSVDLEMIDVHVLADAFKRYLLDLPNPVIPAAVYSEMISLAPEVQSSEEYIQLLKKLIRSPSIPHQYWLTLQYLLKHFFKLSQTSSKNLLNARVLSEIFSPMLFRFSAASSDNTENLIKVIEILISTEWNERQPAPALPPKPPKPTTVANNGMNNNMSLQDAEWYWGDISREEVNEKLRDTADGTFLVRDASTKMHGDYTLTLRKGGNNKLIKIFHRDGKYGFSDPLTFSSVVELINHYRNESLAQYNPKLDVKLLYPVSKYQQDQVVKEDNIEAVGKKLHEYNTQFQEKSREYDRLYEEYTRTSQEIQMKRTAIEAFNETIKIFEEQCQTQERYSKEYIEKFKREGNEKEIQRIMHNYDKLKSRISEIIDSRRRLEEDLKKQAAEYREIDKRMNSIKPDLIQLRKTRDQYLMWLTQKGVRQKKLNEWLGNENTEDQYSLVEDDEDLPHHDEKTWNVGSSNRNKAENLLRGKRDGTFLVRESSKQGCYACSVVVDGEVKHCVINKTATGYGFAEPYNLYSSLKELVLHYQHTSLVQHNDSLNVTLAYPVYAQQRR

For orientation: IC50 means the concentration that inhibits the measured activity by half. Consider `Cc1cc(C(C)Nc2ccccc2C(=O)O)c2oc(-c3ccc(OC(C)C)nc3)cc(=O)c2c1` (single isomer, unassigned; isomer 1) [Example 30, 2-[1-[2-(6-Isopropoxy-3-pyridyl)-6-methyl-4-oxo-chromen-8-yl]ethylamino]benzoic acid, Isomer 1], for which the IC50 in experiment [1] (PIP2diC8 lipid substrate) is 5000 to 10000 nM; in experiment [2] (setting [4]), over 500 nM; in experiment [3] (PIP2diC8 lipid substrate), over 10000 nM.

For the molecule `COc1cccc(-c2cc(=O)c3cc(C)cc(C(C)Nc4ccccc4C(=O)O)c3o2)n1` (single isomer, unassigned; isomer 1) [Example 21, 2-[1-[2-(6-Methoxy-2-pyridyl)-6-methyl-4-oxo-chromen-8-yl]ethylamino]benzoic acid, Isomer 1], the values for the IC50 in experiment [1] (Soy PI lipid substrate), in experiment [2] (setting [4]) and in experiment [3] (Soy PI lipid substrate) were 5000 to 10000 nM, over 500 nM and over 10000 nM, respectively.

On to `Cc1cc(C(C)Nc2ccccc2C(=O)O)c2oc(-c3cnn(-c4ccc(C#N)cn4)c3)cc(=O)c2c1` (single isomer, unassigned) [Example 83, 2-[1-[2-[1-(5-Cyano-2-pyridyl)pyrazol-4-yl]-6-methyl-4-oxo-chromen-8-yl]ethylamino]benzoic acid, Isomer 2,2,2,2-trifluoroacetic acid], for which the IC50 in experiment [1] (Soy PI lipid substrate) is under 500 nM; in experiment [2] (setting [5]), 50 to 100 nM; in experiment [3] (Soy PI lipid substrate), over 10000 nM.

On to `Cc1cc(C(C)Nc2ccc(F)c(F)c2C(=O)O)c2oc(-c3ccccn3)c(C)c(=O)c2c1` (single isomer, unassigned; isomer 1) [Example 128, 6-[1-[3,6-Dimethyl-4-oxo-2-(2-pyridyl)chromen-8-yl]ethylamino]-2,3-difluoro-benzoic acid, Isomer 1], for which the 50% inhibitory concentration (IC50) in experiment [1] (Soy PI lipid substrate) is under 500 nM; in experiment [2] (setting [4]), 50 to 100 nM; in experiment [3] (Soy PI lipid substrate), 500 to 1000 nM.

Turning to `COc1cccc(-c2cc(=O)c3cc(C)cc(C(C)Nc4ccccc4C(=O)O)c3o2)n1` (single isomer, unassigned; isomer 2) [Example 22, 2-[1-[2-(6-Methoxy-2-pyridyl)-6-methyl-4-oxo-chromen-8-yl]ethylamino]benzoic acid, Isomer 2], the concentration for half-maximal inhibition (IC50) in experiment [1] (Soy PI lipid substrate) was under 500 nM; in experiment [2] (setting [4]) it was 50 to 100 nM; in experiment [3] (Soy PI lipid substrate), 1000 to 5000 nM.

Turning to `Cc1cc(C(C)Nc2cccc(F)c2C(=O)O)c2oc(-c3cnn(-c4ccc(C#N)cc4)c3)cc(=O)c2c1` (single isomer, unassigned; isomer 2) [Example 113, 2-[1-2-[1-(4-Cyanophenyl)pyrazol-4-yl]-6-methyl-4-oxo-chromen-8-yl]ethylamino]-6-fluoro-benzoic acid, Isomer 2], the IC50 in experiment [1] (Soy PI lipid substrate) was under 500 nM; in experiment [2] (setting [4]), 100 to 500 nM; in experiment [3] (Soy PI lipid substrate) it was 1000 to 5000 nM.

Take `COc1ccc(-c2cc(=O)c3cc(C)cc(C(C)Nc4ccccc4C(=O)O)c3o2)cn1` (single isomer, unassigned; isomer 1) [Example 19, 2-[1-[2-(6-Methoxy-3-pyridyl)-6-methyl-4-oxo-chromen-8-yl]ethylamino]benzoic acid, Isomer 1]: the IC50 in experiment [1] (Soy PI lipid substrate) is 5000 to 10000 nM; in experiment [2] (setting [4]) it was over 500 nM; in experiment [3] (Soy PI lipid substrate), over 10000 nM.

For the molecule `COc1ccc(-n2cc(-c3cc(=O)c4cc(C)cc(C(C)Nc5ccccc5C(=O)O)c4o3)cn2)cc1C#N` (single isomer, unassigned) [Example 86, 2-[1-[2-[1-(3-Cyano-4-methoxy-phenyl)pyrazol-4-yl]-6-methyl-4-oxo-chromen-8-yl]ethylamino]benzoic acid, Isomer 2,2,2,2-trifluoroacetic acid], the IC50 in experiment [1] (Soy PI lipid substrate) is under 500 nM; in experiment [2] (setting [5]), 100 to 500 nM; in experiment [3] (Soy PI lipid substrate) it was 1000 to 5000 nM.

Take `CC(Nc1ccccc1C(=O)O)c1cc(F)cc2c(=O)cc(-c3cnn(-c4cccnc4)c3)oc12` (single isomer, unassigned) [Example 55, 2-[1-[6-Fluoro-4-oxo-2-[1-(3-pyridyl)pyrazol-4-yl]chromen-8-yl]ethylamino]benzoic acid, Isomer 1,2,2,2-trifluoroacetic acid]: the half-inhibitory concentration (IC50) in experiment [1] (Soy PI lipid substrate) was under 500 nM; in experiment [2] (setting [5]), 100 to 500 nM; in experiment [3] (Soy PI lipid substrate), 5000 to 10000 nM.

For the molecule `Cc1cc(C(C)Nc2ccc(Cl)nc2C(=O)O)c2oc(-c3cncc(F)c3)c(C)c(=O)c2c1` (single isomer, unassigned; isomer 1) [Example 138, 6-Chloro-3-[1-[2-(5-fluoro-3-pyridyl)-3,6-dimethyl-4-oxo-chromen-8-yl]ethylamino]pyridine-2-carboxylic acid, Isomer 1], the IC50 in experiment [2] (setting [4]) was under 50 nM.

Consider `COc1ccc(-n2nncc2-c2cc(=O)c3cc(C)cc(C(C)Nc4ccccc4C(=O)O)c3o2)cc1OC` (single isomer, unassigned) [Example 134, 2-[1-[2-[3-(3,4-Dimethoxyphenyl)triazol-4-yl]-6-methyl-4-oxo-chromen-8-yl]ethylamino]benzoic acid, Isomer 2,2,2,2-trifluoroacetic acid], for which the IC50 in experiment [2] (setting [5]) was over 500 nM.

Turning to `Cc1cc(C(C)Nc2ccc(Cl)nc2C(=O)O)c2oc(-c3cccc(C(F)F)n3)c(C)c(=O)c2c1` (single isomer, unassigned; isomer 1) [Example 141, 6-Chloro-3-[1-[2-[6-(difluoromethyl)-2-pyridyl]-3,6-dimethyl-4-oxo-chromen-8-yl]ethylamino]pyridine-2-carboxylic acid, Isomer 1], the IC50 in experiment [2] (setting [4]) was under 50 nM.

Regarding `Cc1cc(C(C)Nc2cccnc2C(=O)O)c2oc(-c3cccc(C(F)F)n3)c(C)c(=O)c2c1` (single isomer, unassigned; isomer 1) [Example 139, 3-[1-[2-[6-(Difluoromethyl)-2-pyridyl]-3,6-dimethyl-4-oxo-chromen-8-yl]ethylamino]pyridine-2-carboxylic acid; 2,2,2-trifluoroacetic acid, Isomer 1], the 50% inhibitory concentration (IC50) in experiment [2] (setting [5]) was 100 to 500 nM.

In the case of `Cc1cc(C(C)Nc2ccccc2C(=O)O)c2oc(-c3cnn(C)c3)c(C)c(=O)c2c1` (single isomer, unassigned; isomer 1) [Example 136, 2-[1-[3,6-Dimethyl-2-(1-methylpyrazol-4-yl)-4-oxo-chromen-8-yl]ethylamino]benzoic acid, Isomer 1], the 50% inhibitory concentration (IC50) in experiment [2] (setting [4]) is under 50 nM.

Regarding `COc1ccc(-n2cc(-c3cc(=O)c4cc(C)cc(C(C)Nc5ccccc5C(=O)O)c4o3)nn2)cc1OC` (single isomer, unassigned) [Example 133, 2-[1-[2-[1-(3,4-Dimethoxyphenyl)triazol-4-yl]-6-methyl-4-oxo-chromen-8-yl]ethylamino]benzoic acid, Isomer 2,2,2,2-trifluoroacetic acid], in experiment [2] (setting [5]), the IC50 lay in the range of 100 to 500 nM.

With `Cc1cc(C(C)Nc2cccc(F)c2C(=O)O)c2oc(-c3ccccn3)c(C)c(=O)c2c1` (single isomer, unassigned; isomer 1) [Example 140, 2-[1-[3,6-Dimethyl-4-oxo-2-(2-pyridyl)chromen-8-yl]ethylamino]-6-fluoro-benzoic acid, Isomer 1], the IC50 in experiment [2] (setting [4]) was in the range of 50 to 100 nM.
